Measured values taken from patent US11000495B2, “Topical diclofenac sodium compositions” (Novartis Consumer Health S.A., priority 2014, dated 2021).
Structures can show the parent of a compound that is named as a salt.

Experiments:
[1] = cited from earlier work
[2] = Solubility of diclofenac sodium 2 wt % in IPA/PG/water solvent mixtures by UV absorbance; assay type: physicochemical; conditions: 2% diclofenac sodium in IPA/PG/water, 25° C., systems shown as circles in FIG. 1
Protocol: FIG. 1 is a ternary diagram of the solubility of diclofenac sodium, 2 wt %, at 25° C., as determined by UV absorbance, in solvent mixtures comprising isopropyl alcohol (bottom axis), propylene glycol (left axis), and water (right axis) in varying amounts. The data points represent solvent mixtures which are found to be at or above (circles), or below (squares), the target (i.e. 2%) solubility. FIG. 1 illustrates solubility studies of such solvent systems comprising 2% diclofenac sodium in isopropyl alcohol (IPA), propylene glycol (PG) and water. […] (Incomplete solubilization is represented by squares.)

## O=C(O)Cc1ccccc1Nc1c(Cl)cccc1Cl [diclofenac sodium, 2-[(2,6-dichloro-phenyl)amino]benzeneacetic acid, (mono) sodium salt]
[1]; anhydrous form, Llinas et al.
  kinetic solubility: 40 ± 5 µg/mL
[2]
  solubility of the salt in solvent systems: Complete solubility

## O=C(O)Cc1ccccc1Nc1c(Cl)cccc1Cl [Acidic diclofenac, diclofenac]
[1]; acid form, Fini et al.
  water solubility: very low
